Laboratory results taken from PubChem BioAssay AID2060887 (Molecular Pharmacology Branch, DTP, NCI, 2025).
Blank lines part the entries; values can stand above or below the compound they belong to.

System: 782815-120-R-J1-PDC complex spheroid viability
Test: Anticancer human tumor 782815-120-R-J1-PDC patient-derived colon adenocarcinoma cell line growth inhibition [RAS]
Conditions: for IC50: curve of first compound; for viability, T/C: stronger effect = lower value
Outline: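 Agents were tested in combination matrices in half-log decrements from a top concentration at or near clinical Cmax (10 microM if undetermined). Targets were multi-cell spheroids of tumour lines plus HUVEC and MSC stromal cells.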

[1] = second compound 0.00316 µM, first compound 0.0316 µM
[2] = second compound 0.00316 µM, first compound 0.1 µM
[3] = second compound 0.00316 µM, first compound 0.316 µM
[4] = second compound 0.00316 µM, first compound 1 µM
[5] = second compound 0.00316 µM, first compound 3.16 µM
[6] = second compound 0.00316 µM, first compound 10 µM
[7] = second compound 0.01 µM, first compound 0.0316 µM
[8] = second compound 0.01 µM, first compound 0.1 µM
[9] = second compound 0.01 µM, first compound 0.316 µM
[10] = second compound 0.01 µM, first compound 1 µM
[11] = second compound 0.01 µM, first compound 3.16 µM
[12] = second compound 0.01 µM, first compound 10 µM
[13] = second compound 0.0316 µM, first compound 0.0316 µM
[14] = second compound 0.0316 µM, first compound 0.1 µM
[15] = second compound 0.0316 µM, first compound 0.316 µM
[16] = second compound 0.0316 µM, first compound 1 µM
[17] = second compound 0.0316 µM, first compound 3.16 µM
[18] = second compound 0.0316 µM, first compound 10 µM
[19] = second compound 0.1 µM, first compound 0.0316 µM
[20] = second compound 0.1 µM, first compound 0.1 µM
[21] = second compound 0.1 µM, first compound 0.316 µM
[22] = second compound 0.1 µM, first compound 1 µM
[23] = second compound 0.1 µM, first compound 3.16 µM
[24] = second compound 0.1 µM, first compound 10 µM
[25] = second compound 0.316 µM, first compound 0.0316 µM
[26] = second compound 0.316 µM, first compound 0.1 µM
[27] = second compound 0.316 µM, first compound 0.316 µM
[28] = second compound 0.316 µM, first compound 1 µM
[29] = second compound 0.316 µM, first compound 3.16 µM
[30] = second compound 0.316 µM, first compound 10 µM
[31] = second compound 1 µM, first compound 0.0316 µM
[32] = second compound 1 µM, first compound 0.1 µM
[33] = second compound 1 µM, first compound 0.316 µM
[34] = second compound 1 µM, first compound 1 µM
[35] = second compound 1 µM, first compound 3.16 µM
[36] = second compound 1 µM, first compound 10 µM
[37] = second compound 0.00316 µM, first compound 0.00316 µM
[38] = second compound 0.00316 µM, first compound 0.01 µM
[39] = second compound 0.01 µM, first compound 0.00316 µM
[40] = second compound 0.01 µM, first compound 0.01 µM
[41] = second compound 0.0316 µM, first compound 0.00316 µM
[42] = second compound 0.0316 µM, first compound 0.01 µM
[43] = second compound 0.1 µM, first compound 0.00316 µM
[44] = second compound 0.1 µM, first compound 0.01 µM
[45] = second compound 0.316 µM, first compound 0.00316 µM
[46] = second compound 0.316 µM, first compound 0.01 µM
[47] = second compound 1 µM, first compound 0.00316 µM
[48] = second compound 1 µM, first compound 0.01 µM
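Note: spheroids exposed to compounds for 7 days before reading.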
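Throughout, for viability, T/C: 100% = DMSO vehicle control viability.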

Structure (SMILES): CC(C)n1nc(-c2ccc3oc(N)nc3c2)c2c(N)ncnc21 + C=CC(=O)N1CCN(c2nc(OCC3CCCN3C)nc3c(F)c(-c4nc(N)cc(C)c4C(F)(F)F)c(Cl)cc23)C(C)C1
IC50 (second compound 0.00316 µM): > 0.1 µM
IC50 (second compound 0.01 µM): > 0.1 µM
IC50 (second compound 0.0316 µM): > 0.1 µM
IC50 (second compound 0.1 µM): > 0.1 µM
IC50 (second compound 0.316 µM): > 0.1 µM
IC50 (second compound 1 µM): > 0.1 µM
viability, T/C (second compound 0.00316 µM, first compound 0.000316 µM): 101%
viability, T/C (second compound 0.00316 µM, first compound 0.001 µM): 101%
viability, T/C [37]: 96.1%
viability, T/C [38]: 91.7%
viability, T/C [1]: 90.2%
viability, T/C [2]: 93.1%
viability, T/C (second compound 0.01 µM, first compound 0.000316 µM): 99.8%
viability, T/C (second compound 0.01 µM, first compound 0.001 µM): 95.9%
viability, T/C [39]: 100%
viability, T/C [40]: 89.1%
viability, T/C [7]: 92.7%
viability, T/C [8]: 95.5%
viability, T/C (second compound 0.0316 µM, first compound 0.000316 µM): 101%
viability, T/C (second compound 0.0316 µM, first compound 0.001 µM): 102%
viability, T/C [41]: 98.7%
viability, T/C [42]: 95.8%
viability, T/C [13]: 92.2%
viability, T/C [14]: 91.4%
viability, T/C (second compound 0.1 µM, first compound 0.000316 µM): 98.7%
viability, T/C (second compound 0.1 µM, first compound 0.001 µM): 102%
viability, T/C [43]: 91.3%
viability, T/C [44]: 92.1%
viability, T/C [19]: 105%
viability, T/C [20]: 92.6%
viability, T/C (second compound 0.316 µM, first compound 0.000316 µM): 97.5%
viability, T/C (second compound 0.316 µM, first compound 0.001 µM): 105%
viability, T/C [45]: 95.1%
viability, T/C [46]: 102%
viability, T/C [25]: 92.8%
viability, T/C [26]: 94.7%
viability, T/C (second compound 1 µM, first compound 0.000316 µM): 104%
viability, T/C (second compound 1 µM, first compound 0.001 µM): 104%
viability, T/C [47]: 91.5%
viability, T/C [48]: 96.9%
viability, T/C [31]: 94.1%
viability, T/C [32]: 87.7%

Structure (SMILES): CC1(O)CCCC1n1c(=O)c(C(F)F)cc2cnc(NC3CCN(S(C)(=O)=O)CC3)nc21 (stereo not given) + C=CC(=O)N1CCN(c2nc(OCC3CCCN3C)nc3c(F)c(-c4nc(N)cc(C)c4C(F)(F)F)c(Cl)cc23)C(C)C1
IC50 (second compound 0.00316 µM): 3.64 µM
IC50 (second compound 0.01 µM): 2.36 µM
IC50 (second compound 0.0316 µM): 3.38 µM
IC50 (second compound 0.1 µM): 3.61 µM
IC50 (second compound 0.316 µM): 3.45 µM
IC50 (second compound 1 µM): 0.786 µM
viability, T/C [1]: 61.5%
viability, T/C [2]: 53%
viability, T/C [3]: 54.5%
viability, T/C [4]: 57.6%
viability, T/C [5]: 53.8%
viability, T/C [6]: 22%
viability, T/C [7]: 72.5%
viability, T/C [8]: 52.3%
viability, T/C [9]: 53.3%
viability, T/C [10]: 51.8%
viability, T/C [11]: 52.1%
viability, T/C [12]: 19%
viability, T/C [13]: 58.7%
viability, T/C [14]: 56.4%
viability, T/C [15]: 49.2%
viability, T/C [16]: 55.1%
viability, T/C [17]: 51.8%
viability, T/C [18]: 22.1%
viability, T/C [19]: 65.4%
viability, T/C [20]: 50.7%
viability, T/C [21]: 51.3%
viability, T/C [22]: 52.3%
viability, T/C [23]: 54.2%
viability, T/C [24]: 18.6%
viability, T/C [25]: 56.4%
viability, T/C [26]: 52.8%
viability, T/C [27]: 48.9%
viability, T/C [28]: 50.9%
viability, T/C [29]: 53.4%
viability, T/C [30]: 19.8%
viability, T/C [31]: 61%
viability, T/C [32]: 55.7%
viability, T/C [33]: 47.5%
viability, T/C [34]: 46.7%
viability, T/C [35]: 44.9%
viability, T/C [36]: 18.3%

Structure (SMILES): CCN1CCN(Cc2ccc(Nc3ncc(F)c(-c4cc(F)c5nc(C)n(C(C)C)c5c4)n3)nc2)CC1 + C=CC(=O)N1CCN(c2nc(OCC3CCCN3C)nc3c(F)c(-c4nc(N)cc(C)c4C(F)(F)F)c(Cl)cc23)C(C)C1
IC50 (second compound 0.00316 µM): > 1 µM
IC50 (second compound 0.01 µM): > 1 µM
IC50 (second compound 0.0316 µM): > 1 µM
IC50 (second compound 0.1 µM): > 1 µM
IC50 (second compound 0.316 µM): > 1 µM
IC50 (second compound 1 µM): > 1 µM
viability, T/C [37]: 95.3%
viability, T/C [38]: 98.8%
viability, T/C [1]: 99.3%
viability, T/C [2]: 101%
viability, T/C [3]: 105%
viability, T/C [4]: 128%
viability, T/C [39]: 98.9%
viability, T/C [40]: 97.2%
viability, T/C [7]: 95.8%
viability, T/C [8]: 98.2%
viability, T/C [9]: 104%
viability, T/C [10]: 118%
viability, T/C [41]: 102%
viability, T/C [42]: 105%
viability, T/C [13]: 99.5%
viability, T/C [14]: 103%
viability, T/C [15]: 108%
viability, T/C [16]: 118%
viability, T/C [43]: 93.4%
viability, T/C [44]: 96.1%
viability, T/C [19]: 106%
viability, T/C [20]: 103%
viability, T/C [21]: 108%
viability, T/C [22]: 116%
viability, T/C [45]: 96.5%
viability, T/C [46]: 96.5%
viability, T/C [25]: 102%
viability, T/C [26]: 99.3%
viability, T/C [27]: 111%
viability, T/C [28]: 117%
viability, T/C [47]: 92%
viability, T/C [48]: 90.8%
viability, T/C [31]: 104%
viability, T/C [32]: 96.1%
viability, T/C [33]: 108%
viability, T/C [34]: 123%

Continued, in another order:

IC50 (second compound 0.00316 µM): > 10 µM
IC50 (second compound 0.01 µM): > 10 µM
IC50 (second compound 0.0316 µM): > 10 µM
IC50 (second compound 0.1 µM): > 10 µM
IC50 (second compound 0.316 µM): > 10 µM
IC50 (second compound 1 µM): > 10 µM
Structure (SMILES): CC(C)NCC(C(=O)N1CCN(c2ncnc3c2C(C)CC3O)CC1)c1ccc(Cl)cc1 (stereo not given) + C=CC(=O)N1CCN(c2nc(OCC3CCCN3C)nc3c(F)c(-c4nc(N)cc(C)c4C(F)(F)F)c(Cl)cc23)C(C)C1
viability, T/C [1]: 98.4%
viability, T/C [2]: 97%
viability, T/C [3]: 102%
viability, T/C [4]: 92%
viability, T/C [5]: 99%
viability, T/C [6]: 98.7%
viability, T/C [7]: 101%
viability, T/C [8]: 93.3%
viability, T/C [9]: 91.1%
viability, T/C [10]: 93.2%
viability, T/C [11]: 101%
viability, T/C [12]: 96.9%
viability, T/C [13]: 96.2%
viability, T/C [14]: 96.8%
viability, T/C [15]: 94.3%
viability, T/C [16]: 87.9%
viability, T/C [17]: 96.3%
viability, T/C [18]: 101%
viability, T/C [19]: 104%
viability, T/C [20]: 95.2%
viability, T/C [21]: 96.4%
viability, T/C [22]: 94.5%
viability, T/C [23]: 95.9%
viability, T/C [24]: 104%
viability, T/C [25]: 106%
viability, T/C [26]: 93.4%
viability, T/C [27]: 93%
viability, T/C [28]: 88.5%
viability, T/C [29]: 96.7%
viability, T/C [30]: 92.6%
viability, T/C [31]: 105%
viability, T/C [32]: 100%
viability, T/C [33]: 92.5%
viability, T/C [34]: 98.9%
viability, T/C [35]: 103%
viability, T/C [36]: 99.1%

IC50 (second compound 0.00316 µM): > 10 µM
IC50 (second compound 0.01 µM): > 10 µM
IC50 (second compound 0.0316 µM): > 10 µM
IC50 (second compound 0.1 µM): > 10 µM
IC50 (second compound 0.316 µM): > 10 µM
IC50 (second compound 1 µM): > 10 µM
Structure (SMILES): C[C@@H](NC(=O)c1ncnc(N)c1Cl)c1ncc(C(=O)Nc2cc(C(F)(F)F)c(Cl)cn2)s1 + C=CC(=O)N1CCN(c2nc(OCC3CCCN3C)nc3c(F)c(-c4nc(N)cc(C)c4C(F)(F)F)c(Cl)cc23)C(C)C1
viability, T/C [1]: 100%
viability, T/C [2]: 106%
viability, T/C [3]: 97%
viability, T/C [4]: 86%
viability, T/C [5]: 83.8%
viability, T/C [6]: 72.1%
viability, T/C [7]: 104%
viability, T/C [8]: 105%
viability, T/C [9]: 104%
viability, T/C [10]: 88.6%
viability, T/C [11]: 80.8%
viability, T/C [12]: 71.8%
viability, T/C [13]: 116%
viability, T/C [14]: 107%
viability, T/C [15]: 96.6%
viability, T/C [16]: 90%
viability, T/C [17]: 90.2%
viability, T/C [18]: 71.2%
viability, T/C [19]: 111%
viability, T/C [20]: 101%
viability, T/C [21]: 96.8%
viability, T/C [22]: 99.8%
viability, T/C [23]: 89.9%
viability, T/C [24]: 66.3%
viability, T/C [25]: 108%
viability, T/C [26]: 113%
viability, T/C [27]: 97.3%
viability, T/C [28]: 101%
viability, T/C [29]: 85%
viability, T/C [30]: 74.5%
viability, T/C [31]: 114%
viability, T/C [32]: 108%
viability, T/C [33]: 98.5%
viability, T/C [34]: 110%
viability, T/C [35]: 92.6%
viability, T/C [36]: 65.5%
